≈ marks a conversion by molar mass, not a printed value.
Assays:
[1] = test system: Pseudomonas aeruginosa; assay: Antibacterial activity against Pseudomonas aeruginosa PAO1 harboring plasmid pA1 by Etest method; format: functional
[2] = test system: Pseudomonas aeruginosa; assay: Antibacterial activity against mexB and mexY expressing Pseudomonas aeruginosa PA-A2 harboring GyrA T83I, ParC S87L and IS1001 insertion at position 629 in OprD gene by Etest method; format: functional
[3] = test system: Pseudomonas aeruginosa; assay: Antibacterial activity against mexB and mexY expressing Pseudomonas aeruginosa PA-A3 harboring GyrA T83I, ParC S87L and IS1001 insertion at position 629 in OprD gene by Etest method; format: functional
[4] = test system: Pseudomonas aeruginosa; assay: Antibacterial activity against mexB and mexY expressing Pseudomonas aeruginosa PA-A1 harboring GyrA T83I, ParC S87L and IS1001 insertion at position 629 in OprD gene by Etest method; format: functional
[5] = test system: Pseudomonas aeruginosa; assay: Antibacterial activity against Pseudomonas aeruginosa PAO1 by Etest method; format: functional
[6] = test system: Pseudomonas aeruginosa; assay: Antibacterial activity against mexB and mexY expressing Pseudomonas aeruginosa PA-A3 harboring GyrA T83I, ParC S87L and IS1001 insertion at position 629 in OprD gene by Etest method in presence of Tazobactam; format: functional
[7] = test system: Pseudomonas aeruginosa; assay: Antibacterial activity against mexB and mexY expressing Pseudomonas aeruginosa PA-A2 harboring GyrA T83I, ParC S87L and IS1001 insertion at position 629 in OprD gene by Etest method in presence of Tazobactam; format: functional
[8] = test system: Pseudomonas aeruginosa; assay: Antibacterial activity against Pseudomonas aeruginosa PAO1 harboring plasmid pA1 by Etest method in presence of Tazobactam; format: functional
[9] = test system: Pseudomonas aeruginosa; assay: Antibacterial activity against mexB and mexY expressing Pseudomonas aeruginosa PA-A1 harboring GyrA T83I, ParC S87L and IS1001 insertion at position 629 in OprD gene by Etest method in presence of Tazobactam; format: functional
[10] = test system: Pseudomonas aeruginosa; assay: Antibacterial activity against Pseudomonas aeruginosa PAO1 by Etest method in presence of Tazobactam; format: functional
[11] = test system: Pseudomonas aeruginosa; assay: Antibacterial activity against Pseudomonas aeruginosa PAO1 harboring plasmid pA1 by Etest in presence of clavulanic acid

Compound | MIC [1] [µg/mL] | MIC [2] [µg/mL] | MIC [3] [µg/mL] | MIC [4] [µg/mL] | MIC [5] [µg/mL] | MIC [6] [µg/mL] | MIC [7] [µg/mL] | MIC [8] [µg/mL] | MIC [9] [µg/mL] | MIC [10] [µg/mL] | MIC [11] [µg/mL]
O=C(O)c1cn(C2CC2)c2cc(N3CCNCC3)c(F)cc2c1=O [CIPROFLOXACIN] | 0.064 (≈ 0.193 µM) | > 32 | > 32 | > 32 |  |  |  |  |  |  | 
C[C@H]1[C@H](NC(=O)/C(=N\OC(C)(C)C(=O)O)c2csc(N)n2)C(=O)N1S(=O)(=O)O [AZTREONAM] | > 256 | > 256 | > 256 | > 256 | 1.5 (≈ 3.44 µM) |  |  |  |  |  | 
C[C@@H](O)[C@H]1C(=O)N2C(C(=O)O)=C(S[C@@H]3CN[C@H](C(=O)N(C)C)C3)[C@H](C)[C@H]12 [MEROPENEM] | > 32 | > 32 | > 32 | > 32 | 0.25 (≈ 0.652 µM) |  |  |  |  |  | 
NC[C@H]1O[C@H](O[C@H]2[C@H](O)[C@@H](O[C@H]3O[C@H](CO)[C@@H](O)[C@H](N)[C@H]3O)[C@H](N)C[C@@H]2N)[C@H](N)C[C@@H]1O [TOBRAMYCIN] | 16 (≈ 34.2 µM) | > 256 | > 256 | > 256 | 1 (≈ 2.14 µM) |  |  |  |  |  | 
CCN1CCN(C(=O)N[C@@H](C(=O)N[C@@H]2C(=O)N3[C@@H]2SC(C)(C)[C@@H]3C(=O)O)c2ccccc2)C(=O)C1=O [PIPERACILLIN] | > 256 | > 256 | > 256 | > 256 | 3 (≈ 5.8 µM) | > 256 | > 256 | > 256 | > 256 | 2 | 
NCC[C@H](O)C(=O)N[C@@H]1C[C@H](N)[C@@H](O[C@H]2O[C@H](CN)[C@@H](O)[C@H](O)[C@H]2O)[C@H](O)[C@H]1O[C@H]1O[C@H](CO)[C@@H](O)[C@H](N)[C@H]1O [AMIKACIN] | > 32 | > 256 | > 256 | > 256 | 4 (≈ 6.83 µM) |  |  |  |  |  | 
C[C@@H](O)[C@H]1C(=O)N2C(C(=O)O)=C(SCCNC=N)C[C@H]12 [IMIPENEM ANHYDROUS] | 8 (≈ 26.7 µM) | > 32 | > 32 | > 32 | 1 (≈ 3.34 µM) |  |  |  |  |  | 4
COLISTIN | 1 | 2 | 2 | 2 | 1 |  |  |  |  |  | 
GENTAMICIN |  | > 256 | > 256 | > 256 | 2 |  |  |  |  |  | 
CC(C)(O/N=C(\C(=O)N[C@@H]1C(=O)N2C(C(=O)[O-])=C(C[n+]3ccccc3)CS[C@H]12)c1csc(N)n1)C(=O)O [CEFTAZIDIME] | > 256 | > 256 | > 256 | > 256 | 1 (≈ 1.83 µM) |  |  |  |  |  | 
CO/N=C(\C(=O)N[C@@H]1C(=O)N2C(C(=O)[O-])=C(C[N+]3(C)CCCC3)CS[C@H]12)c1csc(N)n1 [CEFEPIME] | > 256 | > 256 | > 256 | > 256 |  |  |  |  |  |  | 
